Laboratory results: paper PMC10002422, “Aggregation Limiting Cell-Penetrating Peptides Derived from Protein Signal Sequences” (International Journal of Molecular Sciences, 2023)
Where no end group is shown, it is not given here.

Columns and labels:
[1] = test system: Aβ1–42-GFP fusion protein expressed in U87 cells; experiment: Reduction in expressed Aβ1–42-GFP aggregation, flow cytometry; format: cell-based, human; settings: control inhibitor

Molecule	green signal in Aβ42–EGFP expressing cells after known Aβ inhibitor [1]	peptide concentration at which cell viability is reduced (MTS) in serum free media (U87 cells)	reduction in the viability of cells (MTS) in serum free media (U87 cells)
O=S1(=O)OC(c2ccc(O)cc2)(c2ccc(O)cc2)c2ccccc21 [phenol red]	significantly increased the green signal	–	–
MANLGYWLLALFVTMWTDVGLCKKRPKP-NH2 [PrP1–28]	–	2.5 µM	over 20%
MLRTKDLIWTLFFLGTAVSKKRPKP-NH2 [NCAM1_1–19PrP23–28]	–	20 µM	–
